Experimental data published in patent US20090181888A1, “Skin Repair Accelerating Therapeutic Agent Containing Ghrelin and Derivatives Thereof or Substance Acting On GHS-R1a as Active Ingredient” (priority 2005, published 2009).
Square brackets hold non-standard residues; d marks the D form. Ends that are not written are not given here. * marks the point of attachment. Octanoyl = CCCCCCCC(=O)*

Key:
Format in all cases: cell-based, Wistar rat
[1] = system: fetal skin cell having GHS-R1a; assay: Intracellular calcium-increasing activity in cultured fetal skin cell (Fura-2 calcium imaging); details: single skin cell of rat fetus
Procedure: A Wistar rat on the 17th day of pregnancy underwent laparotomy under anesthesia for fetus extraction. A small piece of skin was collected from the fetus, treated with collagenase in cold Hank's solution, digested with papain, and mechanically separated by pipetting. This gave a dispersion liquid of the fetal skin cells. A single cell was obtained from the dispersion liquid, ghrelin was added thereto, and calcium imaging was performed. For the calcium imaging, a calcium imaging device (IMACS, Hamamatsu Photonics) was used. That is, the ratio of the emission at a wavelength of 510 nm was measured when excitation was performed by 340 nm/380 nm light. Fura-2 was used as a calcium imaging agent. Ghrelin derived from a rat (SEQ ID NO: 3) was used (the same in the following Examples).
In FIG. 2, I, II and III are the points at which a photograph was taken, but the photographs are omitted from the present description. […] Ghrelin and desacylghrelin were added to different cells, respectively.

cultured fetal skin cell [2] = assay: [3H]-thymidine uptake acceleration in cultured fetal skin cell; details: ghrelin 0.5, 5 and 50 pmol/mL (nM); incubated 24 or 48 hours; versus control without ghrelin; FIG. 3
Procedure: The skin cells of a rat fetus were collected from a Wistar rat on the 17th day of pregnancy, and a dispersion liquid thereof was obtained in the same manner as in Example 2. The dispersed cells were suspended in a MCDB153HAA medium (F-Peptide Co., Ltd., Yamagata, Japan) containing 2% fetal bovine serum, penicillin (100 U/mL), streptomycin (100 μg/mL) and epidermal growth factor EGF (5 ng/mL), and sowed on a polyethyleneimine coated 48-hole multi-well plate in an amount of 5×10^5 cells/well. Ghrelin ([…] (nM))) and [^3H]-thymidine (2 μCi/mL) were added thereto, which was then incubated for 24 hours or 48 hours. A culture solution without containing ghrelin was prepared as a control. After the incubation was over, the cells were collected and radioactivity was measured.
The results are shown in FIG. 3 (black triangle: 50 pmol/mL, black square: 5 pmol/mL, black circle: 0.5 pmol/mL, white circle: control).

cultured fetal skin cell [3] = assay: Cell proliferation acceleration (BrdU uptake, Proliferation ELISA) in cultured fetal skin cell; details: ghrelin 0.05 to 500 pmol/mL (nM) or GHRP6 0.05 to 50 pmol/mL (nM); 24 hours; versus control medium; FIG. 4
Procedure: The fetal skin cells were collected from a Wistar rat on the 17th day of pregnancy, and a dispersion liquid thereof was obtained in the same manner as in Example 2. The dispersed cells with ghrelin (0.05 to 500 pmol/mL (nM)) or GHRP6 (0.05 to 50 pmol/mL (nM)) were suspended in a MCDB153HAA medium (F-Peptide Co., Ltd., Yamagata, Japan) containing 2% fetal bovine serum, penicillin (100 U/mL), streptomycin (100 μg/mL) and epidermal growth factor EGF (5 ng/mL), and sowed on a polyethyleneimine coated 96-hole multi-well plate in an amount of 3×10^4 cells/well. A medium without containing ghrelin or GHRP6 was used as a control. 5-bromo-2′-deoxyuridine (BrdU) (10 μM) was added thereto, which was then incubated for 24 hours. After the culture was over, uptake quantity of BrdU into the fetal skin cell was measured using Proliferation ELISA Kit (Roche Diagnostic GmbH. Manheim, Germany) to consider the skin cell growth activity.

| Substance | intracellular calcium in a single fetal skin cell ([1]; ghrelin 1×10^−6 M, day 17 of pregnancy, Fura-2, 340 nm/380 nm ratio, FIG. 2) | uptake of [3H]-thymidine into the cell (cultured fetal skin cell [2]) | uptake of BrdU into the fetal skin cell (cultured fetal skin cell [3]) | calcium response of a single fetal skin cell (FIG. 2 curve) ([1]; dotted-line curve of FIG. 2, concentration not given) |
| --- | --- | --- | --- | --- |
| GSS (n-octanoyl) FLSPEHQKAQQRKESKKPPAKLQPR (GSS(Octanoyl)FLSPEHQKAQQRKESKKPPAKLQPR; listed as Rattus norvegicus) [ghrelin, 28-residue peptide, serine 3 acylated with n-octanoyl, endogenous GHS-R1a ligand] | increase of calcium was observed | increased | significantly increased | – |
| H[dW]AW[dF]K-NH2 [GHRP6, reference compound] | – | – | significantly increased | – |
| desacylghrelin [reference compound] | – | – | – | responded |
